{"source": "paper PMC4558515", "about": "“Exploring the role of MKK7 in excitotoxicity and cerebral ischemia: a novel pharmacological strategy against brain injury” (Cell Death & Disease, 2015)", "key": {"[1]": {"target": "T1, human recombinant full-length MKK7 (Homo sapiens, UniProt O14733)", "T1 construct": "human recombinant full-length MKK7 (residues M1-R419, as in NCBI/Protein entry NP_660186.1); purchased ProQinase GmbH, Freiburg, Germany", "T1 sequence (O14733 1-419)": "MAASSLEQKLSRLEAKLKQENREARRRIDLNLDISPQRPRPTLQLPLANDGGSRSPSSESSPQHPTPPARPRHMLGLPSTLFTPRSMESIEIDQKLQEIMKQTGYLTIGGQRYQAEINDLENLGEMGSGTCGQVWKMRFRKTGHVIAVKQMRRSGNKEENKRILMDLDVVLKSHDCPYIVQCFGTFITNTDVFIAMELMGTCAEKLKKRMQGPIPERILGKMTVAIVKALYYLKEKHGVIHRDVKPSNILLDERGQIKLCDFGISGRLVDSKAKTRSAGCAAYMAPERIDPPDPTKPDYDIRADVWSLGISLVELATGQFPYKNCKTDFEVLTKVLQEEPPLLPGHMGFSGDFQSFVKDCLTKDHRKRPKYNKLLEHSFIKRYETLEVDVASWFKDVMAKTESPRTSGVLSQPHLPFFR", "test": "SPR binding of GADD45β69–86 to immobilized recombinant MKK7 (ProteOn XPR36)", "conditions": "heterogenous ligand model", "method": "Figure 2 GADD45β69–86 interacts with recombinant MKK7. Starting at time 0, the indicated concentrations of GADD45β69–86 were injected for 150 s over SPR sensor surfaces on which 5000 RUs of human recombinant MKK7 had been previously captured by amine coupling. The SPR chip was then washed with buffer alone to monitor ligand dissociation. Fitted sensorgrams show GADD45β69–86 binding to recombinant MKK7 in RUs. The data were obtained by subtracting the reference channels, containing bovine serum albumin or no polypeptides.\nBinding studies were performed on a ProteOn XPR36 Protein Interaction Array system (Bio-Rad Laboratories, Hercules, CA, USA). Detection of GADD45β69–86 interaction with MKK7 was performed by immobilizing ~5000 resonance units (RUs) of human recombinant full-length MKK7 (residues M1-R419, as in NCBI/Protein entry NP_660186.1; ProQinase GmbH, Freiburg, Germany) on the surface of a sensor chip (GL-C chip, Bio-Rad) by amine-coupling chemistry. GADD45β69–86 molecules were then perfused over the chip for 150 s to allow association, followed by 500 s buffer (PBST) wash to monitor dissociation. Signals were normalized to control channels containing ~5000 RUs of bovine serum albumin or no proteins. […]"}, "[2]": {"tested_on": "MKK7 (P-MKK7/MKK7) in cortical neurons", "test": "Western blot P-MKK7/MKK7 ratio in cortical neurons", "conditions": "100 μM NMDA, versus CTR, n=6"}, "[3]": {"tested_on": "12 DIV cortical neurons", "test": "LDH assay, intrinsic toxicity of peptides on cortical neurons", "format": "cell-based, rat", "conditions": "24 h treatment, 1, 2.5, 5 and 10 μM; one-way ANOVA, P>0.05, n=8", "method": "(§1) Neuroprotection was evaluated by an LDH assay."}, "[4]": {"tested_on": "cortical neurons (12 h OGD)", "test": "LDH assay, protection against oxygen–glucose deprivation (OGD)", "format": "cell-based, rat", "conditions": "5 μM, 30 min pre-treatment, n=6, P<0.01", "method": "OGD was performed on cortical neurons maintained in an Hypoxia Incubator Chamber (StemCell Technologies, Vancouver, BC, Canada) for 12 h; during the first 4 min, oxygen in the chamber was replaced by a mixture of 95% N2 5% CO2; glucose deprivation was realized by substituting culture medium with glucose-free Neurobasal Medium (Life Technologies).\nas §1"}, "[5]": {"tested_on": "middle cerebral artery occlusion (MCAo) in rats", "test": "MCAo model (electrocoagulation), infarct volume by TTC staining", "format": "in vivo, Sprague–Dawley rats"}, "[6]": {"tested_on": "MKK7 (P-MKK7/MKK7) in ipsilateral brain of MCAo rats", "test": "Western blot P-MKK7/MKK7 ratio in ischemic brain tissue", "format": "in vivo, Sprague–Dawley rats", "conditions": "11 mg/kg 30 min before MCAO, n=3, P<0.05", "method": "Actin was used as loading control. […] Actin was used as loading control. […] Actin was used as loading control. […] Actin was used as loading control.\nPart I. Ischemia reperfusion (n=43). […] After 90 min, the clip was removed. […] Animals were initially killed 24 h post lesion."}, "[7]": {"target": "T2, human recombinant full-length MKK7 (mitogen-activated protein kinase kinase 7) (human, UniProt O14733-1 1-419)", "T2 construct": "the vendor's protein may carry one (surmise); also called recombinant MKK7; source: bought: ProQinase GmbH", "T2 sequence (looked up)": "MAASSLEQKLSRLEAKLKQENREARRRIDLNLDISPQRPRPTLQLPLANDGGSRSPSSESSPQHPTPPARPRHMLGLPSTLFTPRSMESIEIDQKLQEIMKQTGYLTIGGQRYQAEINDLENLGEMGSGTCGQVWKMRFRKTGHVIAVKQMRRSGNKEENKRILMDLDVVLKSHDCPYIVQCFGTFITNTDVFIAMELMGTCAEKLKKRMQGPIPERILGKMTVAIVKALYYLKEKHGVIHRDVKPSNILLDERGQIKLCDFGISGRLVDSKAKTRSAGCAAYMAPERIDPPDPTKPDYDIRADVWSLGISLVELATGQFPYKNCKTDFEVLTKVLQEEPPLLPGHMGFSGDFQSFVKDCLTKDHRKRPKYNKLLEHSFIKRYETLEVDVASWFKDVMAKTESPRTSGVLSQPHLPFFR", "test": "SPR; ProteOn XPR36, GL-C chip; ~5000 RU of human recombinant full-length MKK7 immobilised by amine coupling; GADD45β_(69–86) perfused 150 s, then 500 s buffer (PBST) wash; referenced to channels with ~5000 RU bovine serum albumin or no protein; heterogenous ligand binding model", "conditions": "both partners purified"}, "[8]": {"tested_on": "MEK1/2", "conditions": "cited from earlier work", "description": "(§2) We took advantage of the growth arrest and DNA damage-inducible 45β (GADD45β) ability to bind MKK7.[9], [14], [15] GADD45β is involved in the control of cell stress responses in cell cycle, DNA repair and oncogenesis.[9], [16] […] More importantly, GADD45β inhibition is MKK7-specific and has no effect on MKK4, MKK3/6 and MEK1/2 activity.[9] The minimal essential domain of interaction between MKK7 and GADD45β has already been defined (GADD45β60–86 and 69–86 sequences).[15] We here used ..."}, "[9]": {"tested_on": "MKK3/6", "conditions": "cited from earlier work", "description": "as §2"}, "[10]": {"tested_on": "MKK4", "conditions": "cited from earlier work", "description": "as §2"}, "[11]": {"tested_on": "MKK7", "conditions": "cited from earlier work", "description": "as §2"}}, "note": "Residues, ends and D or L forms follow the SMILES beside them. No end group written: not given here.", "data": [{"molecule": "CC[C@H](C)[C@H](N)C(=O)N[C@@H](C)C(=O)N[C@@H](CC(C)C)C(=O)N[C@@H](CCC(N)=O)C(=O)N[C@H](C(=O)N[C@@H](Cc1c[nH]cn1)C(=O)N[C@@H](Cc1ccccc1)C(=O)N[C@H](C(=O)N[C@@H](CC(C)C)C(=O)N[C@H](C(=O)N[C@@H](CCC(N)=O)C(=O)N[C@@H](CO)C(=O)N[C@@H](Cc1ccccc1)C(=O)N[C@@H](CS)C(=O)N[C@@H](CS)C(=O)N[C@@H](CC(=O)O)C(=O)N[C@@H](CC(N)=O)C(=O)N[C@@H](CC(=O)O)C(N)=O)[C@@H](C)CC)[C@@H](C)O)[C@@H](C)CC", "note": "[GADD45β69–86] (H-IALQIHFTLIQSFCCDND-NH2)", "values": [{"measurement": "koff", "setting": "[1]", "value": 0.0013, "unit": "s⁻¹"}, {"measurement": "kon", "setting": "[1]", "value": 315, "unit": "M⁻¹ s⁻¹"}]}, {"molecule": "CN[C@H](CC(=O)O)C(=O)O", "note": "[NMDA, N-methyl-D-aspartate, reference compound]", "values": [{"measurement": "increase of MKK7 phosphorylation", "setting": "[2]; 5 min", "value": 1.7, "unit": "fold"}, {"measurement": "increase of MKK7 phosphorylation", "setting": "[2]; 30 min", "value": 1.5, "unit": "fold"}, {"measurement": "increase of MKK7 phosphorylation", "setting": "[2]; 60 min", "value": 1.9, "unit": "fold"}]}, {"molecule": "TAT-spacer-GADD45β60–86: cell-permeable MKK7 inhibitor peptide with spacer between TAT and GADD45β residues 60–86", "values": [{"measurement": "neuronal death (LDH), intrinsic toxicity", "setting": "[3]", "value": "did not induce neuronal death"}, {"measurement": "inhibition of neuronal death induced by OGD (LDH)", "setting": "[4]", "value": 95, "unit": "%"}, {"measurement": "reduction of infarct volume (abstract)", "setting": "[5]; 1 week after MCAo, administration time not given", "value": 49, "unit": "%"}, {"measurement": "infarct volume, in words", "setting": "[5]; 12-h post-ischemic injection, not shown", "value": "did not significantly decrease the infarct volume"}, {"measurement": "percentage of ischemic volume on the whole rat brain", "setting": "[5]; 30 min before lesion, 24 h after lesion, mean±s.d., n=6, control 13.72±4.07% (n=5), P<0.01", "value": "7.85±2.03", "unit": "%"}, {"measurement": "reduction of infarcted volume", "setting": "[5]; ICV (2 μl of 11 μg/μl; legend: 11 mg/kg) 30 min before lesion, 24 h after lesion, P<0.01", "value": 43, "unit": "%"}, {"measurement": "reduction of infarct volume", "setting": "[5]; injected 6 h post ischemia, 1 week after MCAo", "value": 44, "unit": "%"}, {"measurement": "reduction of infarct volume (Conclusions)", "setting": "[5]; injected 6 h post ischemia, 1 week after lesion", "value": 49, "unit": "%"}, {"measurement": "percentage of ischemic volume", "setting": "[5]; injected 6 h post lesion, 1 week after MCAo, mean±S.D., n=5, P<0.01", "value": "6.95±0.93", "unit": "%"}, {"measurement": "percentage of ischemic volume on the whole rat brain", "setting": "[5]; injected 6 h post lesion, 24 h after lesion, mean±S.D., n=5, P<0.01", "value": "8.04±1.04", "unit": "%"}, {"measurement": "reduction of infarct volume", "setting": "[5]; pre-ischemic (30 min before) administration, 1 week after MCAo", "value": "~50", "unit": "%"}, {"measurement": "percentage of ischemic volume", "setting": "[5]; pre-ischemic (30 min before) administration, 1 week after MCAo, mean±S.D., n=5, control 12.42±2.22% (n=5), P<0.01", "value": "6.22±0.98", "unit": "%"}, {"measurement": "reduction of P-MKK7/MKK7 ratio", "setting": "[6]; 3 h after ischemia", "value": 54, "unit": "%"}, {"measurement": "reduction of P-MKK7/MKK7 ratio", "setting": "[6]; 6 h after ischemia", "value": 33, "unit": "%"}]}, {"molecule": "IALQIHFTLIQSFCCDND (not fully specified (C-terminus); cysteine pairing not given here, growth arrest and DNA damage-inducible 45β (GADD45β), residues 69-86 (the α-helix))", "note": "[GADD45β_(69–86) peptide]", "values": [{"measurement": "Kd", "setting": "[7]", "value": 3.71, "unit": "µM"}]}, {"molecule": "GADD45β: growth arrest and DNA damage-inducible 45β protein, binds MKK7 (protein, UniProt O75293 1-160, looked up) Growth arrest and DNA …: MTLEELVACDNAAQKMQTVTAAVEELLVAAQRQDRLTVGVYESAKLMNVDPDSVVLCLLAIDEEEEDDIALQIHFTLIQSFCCDNDINIVRVSGMQRLAQLLGEPAETQGTTEARDLHCLLVTNPHTDAWKSHGLVEVASYCEESRGNNQWVPYISLQER", "values": [{"measurement": "effect on MEK1/2 activity, in words", "setting": "[8]", "value": "no effect"}, {"measurement": "effect on MKK3/6 activity, in words", "setting": "[9]", "value": "no effect"}, {"measurement": "effect on MKK4 activity, in words", "setting": "[10]", "value": "no effect"}, {"measurement": "binding to MKK7, in words", "setting": "[11]", "value": "binds tightly to MKK7"}, {"measurement": "inhibition of MKK7 enzymatic activity, in words", "setting": "[11]", "value": "inhibits its enzymatic activity"}]}]}
